Experimental data reported in DBAASP.
Converted amounts (≈) assume the structure as drawn. “And” between values parts separate entries of the source, which are not always exact repeats. Identical values can stand only once.

What was measured:
Assay in all cases: ≥ marks a high value that may be exact or a test limit, other limits are often not marked, values filed in µg/mL are converted to µM
[1] = test system: Pseudomonas aeruginosa ATCC 27853
[2] = test system: Staphylococcus aureus
[3] = test system: Staphylococcus aureus ATCC 25923
[4] = test system: Escherichia coli
[5] = test system: Pseudomonas aeruginosa 2
[6] = test system: Escherichia coli ATCC 25922
[7] = test system: Pseudomonas aeruginosa 1
[8] = test system: Enterobacter cloacae
[9] = test system: Escherichia coli B
[10] = test system: Candida albicans
[11] = test system: Aerococcus viridans
[12] = test system: Streptococcus pneumoniae
[13] = test system: Bacillus megaterium
[14] = test system: Staphylococcus haemolyticus
[15] = test system: Klebsiella pneumoniae
[16] = test system: Vibrio cholerae
[17] = test system: Salmonella enterica subsp. enterica serovar Enteritidis
[18] = test system: Listeria monocytogenes
[19] = test system: Salmonella typhimurium
[20] = test system: Saccharomyces cerevisiae
[21] = test system: Clostridium perfringens
[22] = test system: Pseudomonas aeruginosa
[23] = test system: Klebsiella aerogenes CGMCC 1.876
[24] = test system: Klebsiella pneumoniae subsp. pneumoniae CGMCC 1.176
[25] = test system: Enterococcus faecium CGMCC 1.2334
[26] = test system: Pseudomonas aeruginosa CGMCC 1.860
[27] = test system: Staphylococcus aureus AS1.72
[28] = test system: Escherichia coli AS1.349
[29] = test system: Enterococcus faecalis CGMCC 1.595
[30] = test system: Bacillus cereus AS1.126
[31] = test system: Lactococcus lactis AS1.1690
[32] = test system: Enterobacter cloacae CGMCC 1.58
[33] = test system: Pseudomonas aeruginosa CICC 21630
[34] = test system: Acinetobacter baumannii
[35] = test system: Salmonella enterica subsp. enterica serovar Pullorum C79-13
[36] = test system: Escherichia coli UB1005
[37] = test system: Salmonella enterica subsp. enterica serovar Typhimurium ATCC 14028
[38] = test system: Pseudomonas aeruginosa PAO1
[39] = test system: Salmonella enterica subsp. enterica serovar Typhimurium C77-31
[40] = test system: Pseudomonas aeruginosa CICC 21625
[41] = test system: Escherichia coli K88
[42] = test system: Escherichia coli K99

CC[C@H](C)[C@H](NC(=O)CN)C(=O)NCC(=O)N[C@@H](C)C(=O)N[C@H](C(=O)N[C@@H](CC(C)C)C(=O)N[C@@H](CCCCN)C(=O)N[C@@H](Cc1c[nH]c2ccccc12)C(=O)N[C@@H](CC(C)C)C(=O)N1CCC[C@H]1C(=O)N[C@@H](C)C(=O)N[C@@H](CC(C)C)C(=O)N[C@H](C(=O)N[C@@H](CCCCN)C(=O)N[C@@H](CCCN=C(N)N)C(=O)N[C@@H](CCCCN)C(=O)N[C@@H](CCCN=C(N)N)C(=O)N[C@@H](CCC(N)=O)C(=O)N[C@@H](CCC(N)=O)C(=O)O)[C@@H](C)CC)C(C)C [GIGAVLKWLPALIKRKRQQ]
MIC [1]: 2.3 µM (≈ 5 µg/mL)
MIC [2]: 0.115 µM and 0.163 µM
MIC [3]: 0.0575 µM (≈ 0.125 µg/mL)
MIC [4]: 0.405 µM (≈ 0.88 µg/mL)
MIC [5]: 4.6 µM (≈ 10 µg/mL)
MIC [6]: 0.575 µM (≈ 1.25 µg/mL)
MIC [7]: 1.15 µM (≈ 2.5 µg/mL)

CC[C@H](C)[C@H](NC(=O)[C@H](CC(C)C)NC(=O)[C@H](CO)NC(=O)[C@@H](NC(=O)[C@@H](NC(=O)[C@H](CC(C)C)NC(=O)CN)C(C)C)[C@@H](C)O)C(=O)N[C@@H](CCCCN)C(=O)NCC(=O)N[C@@H](C)C(=O)NCC(=O)N[C@@H](CCCCN)C(=O)N[C@@H](CC(C)C)C(=O)N[C@@H](CC(C)C)C(=O)NCC(=O)NCC(=O)N[C@@H](CC(C)C)C(=O)N[C@@H](Cc1ccccc1)C(=O)NCC(=O)N[C@@H](CO)C(=O)N[C@H](C(=O)N[C@H](C(=O)NCC(=O)NCC(=O)N[C@@H](CCC(N)=O)C(=O)N[C@@H](CO)C(=O)O)[C@@H](C)O)C(C)C [GLVTSLIKGAGKLLGGLFGSVTGGQS]
MIC [8]: 12.5 µM (≈ 30.2 µg/mL)
MIC [9]: 6.25 µM (≈ 15.1 µg/mL)
MIC [2]: 6.25 µM (≈ 15.1 µg/mL)
MIC [10]: 50 µM (≈ 121 µg/mL)
MIC [11]: 3.1 µM (≈ 7.5 µg/mL)
MIC [12]: 6.25 µM (≈ 15.1 µg/mL)
MIC [13]: 25 µM (≈ 60.4 µg/mL)
MIC [14]: ≥ 50 µM
MIC [15]: 6.25 µM (≈ 15.1 µg/mL)
MIC [16]: 25 µM (≈ 60.4 µg/mL)
MIC [17]: 3.1 µM (≈ 7.5 µg/mL)
MIC [18]: 25 µM (≈ 60.4 µg/mL)
MIC [19]: 3.1 µM (≈ 7.5 µg/mL)
MIC [20]: ≥ 50 µM
MIC [21]: ≥ 50 µM
MIC [22]: 3.1 µM (≈ 7.5 µg/mL)

NC(N)=NCCC[C@H](NC(=O)[C@H](Cc1cnc[nH]1)NC(=O)[C@H](Cc1c[nH]c2ccccc12)NC(=O)[C@H](Cc1ccccc1)NC(=O)[C@H](CCCN=C(N)N)NC(=O)[C@H](CCCN=C(N)N)NC(=O)[C@H](Cc1c[nH]c2ccccc12)NC(=O)[C@@H](N)Cc1cnc[nH]1)C(=O)O [HWRRFWHR]
MIC [23]: ≥ 100 µM
MIC [24]: ≥ 100 µM
MIC [25]: 12.5 µM (≈ 16 µg/mL)
MIC [26]: 12.5 µM (≈ 16 µg/mL)
MIC [27]: 12.5 µM (≈ 16 µg/mL)
MIC [28]: 12.5 µM (≈ 16 µg/mL)
MIC [29]: 12.5 µM (≈ 16 µg/mL)
MIC [30]: 3.13 µM (≈ 4.01 µg/mL)
MIC [31]: 25 µM (≈ 32 µg/mL)
MIC [32]: ≥ 100 µM

CC[C@H](C)[C@H](N)C(=O)N[C@@H](CCCN=C(N)N)C(=O)N1CCC[C@H]1C(=O)N[C@H](C(=O)N[C@H](C(=O)N[C@@H](CCCN=C(N)N)C(=O)N1CCC[C@H]1C(=O)N[C@H](C(=O)N[C@H](C(=O)N[C@@H](CCCN=C(N)N)C(=O)N1CCC[C@H]1C(=O)N[C@H](C(=O)N[C@H](C(=O)N[C@@H](CCCN=C(N)N)C(=O)N1CCC[C@H]1C(=O)N[C@H](C(N)=O)[C@@H](C)CC)[C@@H](C)CC)[C@@H](C)CC)[C@@H](C)CC)[C@@H](C)CC)[C@@H](C)CC)[C@@H](C)CC [IRPIIRPIIRPIIRPI]
MIC [1]: > 64 µM
MIC [33]: ≥ 64 µM
MIC [34]: 8 µM (≈ 15.5 µg/mL)
MIC [35]: 16 µM (≈ 31 µg/mL)
MIC [36]: 16 µM (≈ 31 µg/mL)
MIC [37]: 16 µM (≈ 31 µg/mL)
MIC [38]: > 64 µM
MIC [4]: 16 µM (≈ 31 µg/mL)
MIC [15]: 32 µM (≈ 61.9 µg/mL)
MIC [39]: 16 µM (≈ 31 µg/mL)
MIC [40]: ≥ 64 µM
MIC [41]: 4 µM (≈ 7.74 µg/mL)
MIC [42]: 8 µM (≈ 15.5 µg/mL)
MIC [22]: > 64 µM
MIC [6]: 16 µM (≈ 31 µg/mL)
